Reference: paper PMC13439108, “An antibody–drug conjugate active against antibiotic-resistant Neisseria gonorrhoeae” (Proceedings of the National Academy of Sciences of the …, 2026)
Values after ≈ are worked out from the molar mass of the structure shown. Where a SMILES comes first, the peptide text is derived from it. [ ]: non-standard residue; d: D form. The star is where a group is joined. d(aIle) = CC[C@H](C)[C@@H](N)C(=O)O; dDab = NCC[C@@H](N)C(=O)O; Octanoyl = CCCCCCCC(=O)*; Dab = NCC[C@H](N)C(=O)O; AEEA = NCCOCCOCC(=O)O

Tests used:
human erythrocytes = experiment: Hemolysis of human erythrocytes; assay type: cell-based
Experimental: For hemolysis, whole human blood (1 ml; K2EDTA; Cambridge Bioscience) was washed in PBS then 0.5% added to an equal volume of peptides or ADCs in 96-well V-bottomed polypropylene plates and incubated at 37°C for 1 hr. Cells were pelleted at 1,000 × g for 10 min and the absorbance at OD415 measured. Positive (melittin, 2.5 µM, Merck Life Science) and negative (PBS) controls were normalised as 100 and 0% hemolysis, respectively. […]

N. gonorrhoeae WHO N = conditions: microdilution in FB, ~5 × 10^4 CFU, 24 hr, 37°C, 5% CO2
Experimental: (§1) columns (ThermoFisher scientific). Activated mAb was added to 0.9 mg of Oct-TriA1 analogues (synthesised by ISCA Biochemicals, UK) and incubated at room temperature for 60 min. ADCs were dialysed using slide-A-Lyzer cassette (20K MWCO, ThermoFisher scientific) into PBS overnight at 4 °C […]
(§2) MALDI-TOF MS analysis for determination of intact mass mAbs or ADCs with a concentration of 1 mg/mL were acidified with 1% trifluoroacetic acid and mixed with Super DHB matrix, 1 μl was spotted onto an MTP Anchorchip 600/384. For every mAb, three sample spots were prepared from the same solution using three protocols advised by the manufacturer. MALDI-TOF measurements were performed on a Microflex LRF mass spectrometer, equipped with a 60Hz nitrogen laser at 337nm. Number of peptides conjugated was calculated using the MALDI-TOF molecular weights (MW) [MW = M+] of each ADC, the unconjugated antibody (mAb), and the molecular weights of Oct-TriA1 analogues using the following equation.
(§3) Number of peptides = MW ADC − MW mAb […]
(§4) Determination of Oct-TriA1 Minimum Inhibitory Concentration (MIC)
(§5) N. gonorrhoeae was resuspended in PBS to an ODA600 1.0, and ̴5 × 10^4 CFU added to wells of a microdilution plate containing dilutions of antimicrobials in FB. Plates were incubated for 24 hr at […]
(§6) 37°C, in 5% CO2 then 10 μl aliquots plated onto GCB agar. The MIC was defined as the lowest concentration of an antimicrobial that prevented bacterial growth. […]
(§7) Peptide concentration in ADC preparations
(§8) Peptide concentrations for ADCs were calculated from the antibody concentration, the drug-to-antibody ratio (DAR), and the peptide molecular weight using the following formula:
(§9) Conc. peptide (µg/mL) = Conc. ADC (µg/mL) × DAR x MWpeptide (Da) […]
(§10) Where Conc. ADC is the ADC/ mAb concentration, MWADC is the mAb molecular weight (150 kDa), MWpeptide is the peptide molecular weight and DAR is the average number of peptides per conjugate.
(§11) This formula was used to convert ADC concentrations to peptide concentrations for all assays. […]

N. gonorrhoeae MS11 = conditions: microdilution in FB, ~5 × 10^4 CFU, 24 hr, 37°C, 5% CO2
Experimental: as §1, §2, §3, §4, §5, §6, §7, §8, §9, §10, §11

N. gonorrhoeae MS11ΔIgAP = conditions: microdilution in FB, ~5 × 10^4 CFU, 24 hr, 37°C, 5% CO2
Experimental: as §1, §2, §3, §4, §5, §6, §7, §8, §9, §10, §11

N. gonorrhoeae FA1090 = conditions: microdilution in FB, ~5 × 10^4 CFU, 24 hr, 37°C, 5% CO2
Experimental: as §1, §2, §3, §4, §5, §6, §7, §8, §9, §10, §11

N. gonorrhoeae WHO G = conditions: microdilution in FB, ~5 × 10^4 CFU, 24 hr, 37°C, 5% CO2
Experimental: as §1, §2, §3, §4, §5, §6, §7, §8, §9, §10, §11

N. gonorrhoeae WHO K = conditions: microdilution in FB, ~5 × 10^4 CFU, 24 hr, 37°C, 5% CO2
Experimental: as §1, §2, §3, §4, §5, §6, §7, §8, §9, §10, §11

[1] = test system: N. gonorrhoeae FA1090ΔIgAP; conditions: microdilution in FB, ~5 × 10^4 CFU, 24 hr, 37°C, 5% CO2
Experimental: as §1, §2, §3, §4, §5, §6, §7, §8, §9, §10, §11

[2] = test system: N. gonorrhoeae FA1090ΔmtrE; conditions: microdilution in FB, ~5 × 10^4 CFU, 24 hr, 37°C, 5% CO2
Experimental: as §1, §2, §3, §4, §5, §6, §7, §8, §9, §10, §11

N. gonorrhoeae MS11ΔmtrE = conditions: microdilution in FB, ~5 × 10^4 CFU, 24 hr, 37°C, 5% CO2
Experimental: as §1, §2, §3, §4, §5, §6, §7, §8, §9, §10, §11

N. gonorrhoeae WHO F = conditions: microdilution in FB, ~5 × 10^4 CFU, 24 hr, 37°C, 5% CO2, lowest concentration preventing growth
Experimental: as §1, §2, §3, §4, §5, §6, §7, §8, §9, §10, §11

N. gonorrhoeae WHO P = conditions: microdilution in FB, ~5 × 10^4 CFU, 24 hr, 37°C, 5% CO2
Experimental: as §1, §2, §3, §4, §5, §6, §7, §8, §9, §10, §11

N. gonorrhoeae WHO O = conditions: microdilution in FB, ~5 × 10^4 CFU, 24 hr, 37°C, 5% CO2
Experimental: as §1, §2, §3, §4, §5, §6, §7, §8, §9, §10, §11

N. gonorrhoeae WHO M = conditions: microdilution in FB, ~5 × 10^4 CFU, 24 hr, 37°C, 5% CO2
Experimental: as §1, §2, §3, §4, §5, §6, §7, §8, §9, §10, §11

N. gonorrhoeae WHO L = conditions: microdilution in FB, ~5 × 10^4 CFU, 24 hr, 37°C, 5% CO2
Experimental: as §1, §2, §3, §4, §5, §6, §7, §8, §9, §10, §11

In the case of `CCCCCCCC(=O)N[C@@H](C(=O)N[C@H](CCN)C(=O)NCC(=O)N[C@H](CO)C(=O)N[C@H](Cc1c[nH]c2ccccc12)C(=O)N[C@@H](CO)C(=O)N[C@@H](CCN)C(=O)N[C@H](CCN)C(=O)N[C@@H](Cc1ccccc1)C(=O)N[C@@H](CCC(=O)O)C(=O)N[C@H](C(=O)N[C@@H](C(=O)N[C@@H](C)C(=O)NCCOCCOCC(=O)N[C@@H](CC(C)C)C(=O)N1CCC[C@H]1C(=O)N[C@@H](CCCNC(=N)N)C(=O)N1CCC[C@H]1C(=O)N1CCC[C@H]1C(=O)O)[C@@H](C)CC)C(C)C)C(C)C` [Oct-TriA1-c] (Octanoyl-[dV][dDab]G[dS][dW]S[Dab][dDab]FEV[d(aIle)]A[AEEA]LPRPP-OH), the “fold reduced hemolytic activity” value (human erythrocytes; compared with unmodified Oct-TriA1) is reported as greater than 25 fold, the “Hemolysis (HC50)” value (human erythrocytes; concentration of peptide or ADC that lyses 50% of erythrocytes, washed human blood 0.5%, 37°C, 1 hr, OD415, melittin 2.5 µM = 100%, PBS = 0%, n = 3) is reported as >1,000 μg mL^−1 and the HC50 (human erythrocytes; human erythrocytes, 37°C, 1 hr, OD415) is reported as greater than 1 mg/mL. It also gave an MIC (N. gonorrhoeae WHO N) of 3.13 µg/mL (≈ 1.41 µM), an MIC (N. gonorrhoeae MS11) of 3.13 µg/mL (≈ 1.41 µM) and an MIC (N. gonorrhoeae MS11ΔIgAP) of 6.25 µg/mL (≈ 2.81 µM). It also gave an MIC (N. gonorrhoeae FA1090) of 0.78 µg/mL (≈ 0.35 µM), an MIC (N. gonorrhoeae WHO G) of 3.13 µg/mL (≈ 1.41 µM) and an MIC (N. gonorrhoeae WHO K) of 3.13 µg/mL (≈ 1.41 µM). It also gave an MIC [1] of 0.78 µg/mL (≈ 0.35 µM), an MIC [2] of 0.78 µg/mL (≈ 0.35 µM) and an MIC (N. gonorrhoeae MS11ΔmtrE) of 1.56 µg/mL (≈ 0.701 µM). The MIC (N. gonorrhoeae WHO F) was 1.56 µg/mL (≈ 0.701 µM), the MIC (N. gonorrhoeae WHO P) was 3.13 µg/mL (≈ 1.41 µM) and the MIC (N. gonorrhoeae WHO O) was 3.13 µg/mL (≈ 1.41 µM). It also gave an MIC (N. gonorrhoeae WHO M) of 1.56 µg/mL (≈ 0.701 µM) and an MIC (N. gonorrhoeae WHO L) of 1.56 µg/mL (≈ 0.701 µM).
